Test results as given in patent US20260069626A1, “Compositions and Methods to Protect and Enhance Structural and Functional Integrity of the Intestinal Glycocalyx” (Calroy Health Sciences, LLC, priority 2023, published 2026).

Columns and labels:
[1] = test system: mouse intestinal glycocalyx; assay: DSS-treated mice: WGA-FITC immunofluorescence of colon glycocalyx (Example 3); assay type: in vivo; details: for Average Florescence Intensity of Mouse Intestinal Glycocalyx after WGA-FITC Staining (AVI): oral mg/kg/day per Table IV: single agents 100, 3′-SL + 6′-SL 100 each, HMOs 50 each + COS 100; for mouse intestinal glycocalyx (FIG. 8, FIG. 9): oral, doses of Table IV
Protocol: Male C57BL/6J mice (18-20 g) of 6 weeks old were housed under controlled conditions with a constant temperature (23±2° C.), stable humidity, and a 12-hour light/dark cycle. After a one-week acclimatization period, the mice were randomly divided into 7 groups, with 5 mice per group: Control, DSS, DSS+3′-SL, DSS+6′-SL, DSS+5-ASA, DSS+6′-SL+3′-SL, and DSS+HMOs+COS. The control group received sterile water for 19 days. The DSS group was given 4% (wt/vol) DSS in their drinking water from days 8-14, with daily oral gavage of sterile water for 11 days. The other groups were treated with 3% DSS in their drinking water from days 8-14, along with oral administration of various functional glycans (mg/kg/day) of COS up to the 19th day (See Experimental Design in Table III). The DSS solution was replaced every two days to maintain its bioactivity. Mouse body weight, stool consistency, and rectal bleeding were monitored daily, alongside observations of coat sheen, mental state, and activity levels.
Immunofluorescence staining of mouse colon tissue was performed using the following procedure. Paraffin sections were prepared from the distal colon, 1 cm from the anus. Deparaffinization and rehydration were performed with xylene and ethanol, as follows: xylene (5 min×2), 100% ethanol (5 min×2), 90% ethanol (5 min×1), 80% ethanol (5 min×1), 70% ethanol (5 min×1), and deionized water (10 s). Endogenous peroxidase activity was quenched with 0.75% hydrogen peroxide for 10 minutes, followed by PBS washes. Antigen retrieval was performed by boiling the sections in 0.01 mol/L sodium citrate for 30 minutes. For WGA staining, sections were incubated overnight at 4° C. with 0.1 μg/μL FITC-WGA in PBS (40 μL per sample). After washing with PBS, nuclei were counterstained with DAPI and sections were mounted with an anti-fade medium. The stained sections were visualized under a fluorescence microscope, and the colonic mucosal glycocalyx was quantified using ImageJ software.

[2] = test system: C57BL/6J mice treated with DSS; assay: DSS-treated mice: body weight and Disease Activity Index (Example 3); assay type: in vivo, mouse; details: oral, doses of Table IV
Protocol: Male C57BL/6J mice (18-20 g) of 6 weeks old were housed under controlled conditions with a constant temperature (23±2° C.), stable humidity, and a 12-hour light/dark cycle. After a one-week acclimatization period, the mice were randomly divided into 7 groups, with 5 mice per group: Control, DSS, DSS+3′-SL, DSS+6′-SL, DSS+5-ASA, DSS+6′-SL+3′-SL, and DSS+HMOs+COS. The control group received sterile water for 19 days. The DSS group was given 4% (wt/vol) DSS in their drinking water from days 8-14, with daily oral gavage of sterile water for 11 days. […] Mouse body weight, stool consistency, and rectal bleeding were monitored daily, alongside observations of coat sheen, mental state, and activity levels. The Disease Activity Index (DAI) was used to assess colitis severity, calculated as the mean of the scores for weight loss, stool consistency, and rectal bleeding as described below. Mice were weighed daily at the same time, with the percentage of weight loss compared to the end of the acclimation period: <1% scored 0; 1-5% scored 1; 5-10% scored 2; 10-20% scored 3; >20% scored 4. Stool consistency was also evaluated daily: normal stool scored 0; soft but formed stool scored 1; paste-like stool scored 2; liquid stool scored 3. […] The DAI was calculated as the average of these three scores. […]

[3] = test system: Caco-2 intestinal epithelial cell glycocalyx; assay: Prevention/repair of DSS damage to Caco-2 glycocalyx, microfluidic chip, WGA-FITC (Example 2); assay type: cell-based; details: 2% DSS, single agents 200 μg/ml, 6′-SL and 3′-SL each 100 μg/ml, 100 μg/ml COS with 50 μg/ml each of 6′-SL, 2′-FL
Protocol: Using the same microfluidic chip model in Example 1, different functional glycans of RS, COS and hMO, and some combinations were evaluated for their capability to prevent and repair the damages of Caco-2 intestinal epithelial cell glycocalyx caused by DSS. […] In addition to DSS, a positive control of 5-aminosalicylic acid (5-ASA), RS, COS, different hMOS, and a combination of hMOs and COS at different concentrations in phosphate-buffered saline (PBS) with water were introduced into microfluidic chips for testing their effects on the intestinal glycocalyx in the presence of DSS.
FIG. 1 depicts the images of the intestinal epithelial cell glycocalyx and nucleus stained by WGA-FITC individually and together. […] Briefly, 2% DSS caused a significant decrease of intestinal glycocalyx as measured by WGA fluorescence intensity.

SMILES	Average Florescence Intensity of Mouse Intestinal Glycocalyx after WGA-FITC Staining (AVI) [1]	mouse intestinal glycocalyx (FIG. 8, FIG. 9) [1]	DAI at the end of the study compared to DSS only (FIG. 6) [2]	body weight at the end of the study compared to DSS only (FIG. 4) [2]	damage of the intestinal glycocalyx caused by DSS (WGA fluorescence intensity, FIG. 1-2) [3]
CC(=O)N[C@H]1[C@H]([C@H](O)[C@H](O)CO)O[C@@](O[C@H]2[C@@H](O)[C@@H](CO)O[C@@H](O[C@H]3[C@H](O)[C@@H](O)C(O)O[C@@H]3CO)[C@@H]2O)(C(=O)O)C[C@@H]1O (stereo partly drawn) [3′-SL, 3′-sialyllactose]	2.45	increased	–	–	–
Nc1ccc(O)c(C(=O)O)c1 [5-ASA, 5-aminosalicylic acid, reference compound]	2.56	–	significantly reduced	significant increase	significantly prevented the damage
CC(=O)N[C@H]1[C@H]([C@H](O)[C@H](O)CO)O[C@@](OC[C@H]2O[C@@H](O[C@H]3[C@H](O)[C@@H](O)[C@H](O)O[C@@H]3CO)[C@H](O)[C@@H](O)[C@H]2O)(C(=O)O)C[C@@H]1O [6′-SL, 6′-sialyllactose]	2.75	increased	–	–	significantly prevented the damage
